Patent publication US10703777B2, “Miniature protein scaffolds and methods for use thereof” (New York University, priority 2017, dated 2020)
“Also recorded” adds a separate entry of the source.

Legend:
Format in all cases: physicochemical
[1] = Sedimentation equilibrium analysis; conditions: concentration of 1.8 mM at 4° C.
Description: Sedimentation equilibrium measurements were carried out on a Beckman (Brea, Calif.) XL-A analytical ultracentrifuge equipped with absorption optics and an An-60 Ti rotor. Analysis was conducted at rotor speeds of 45,000 and 48,000 rpm at 4° C. Data were acquired at two wavelengths per rotor speed setting and processed globally for the best fit to a single-species model of absorbance versus radial distance. Solvent density and protein partial specific volume were calculated according to solvent and protein composition, respectively.
The native sequence on which to initiate the mini-protein design was chosen based on two primary criteria. First, the present inventors sought a sequence containing a loop featuring a β-hairpin, which could be nucleated using a D-Pro-Gly motif (2, 7). Most of the loop regions observed in WSXWS motifs are lacking in canonical forms of secondary structure that could be enforced with rational peptide design (FIG. 2). Second, the present inventors wanted a sequence containing three arginine residues on the β-strand portion of the fold composing the cation-π interaction network. The only sequence meeting these two criteria was that of the WSXWS motif found in IL3RB (UniprotID: P32927). […] The apparent molecular mass was within 10% of that calculated for an ideal monomer, with no systematic deviation of the residuals. […]

[2] = Near-UV CD thermal melts monitoring mean residue ellipticity at 280 nm; conditions: 10 mM PBS buffer pH 7.5, elevated temperatures
Description: FIGS. 6A-6B. Near-UV CD thermal melts for the TrpPlexus cation-π interation network mutants. (6A) Schematic of the cation-π network of TrpPlexus detailing variable amino acid positions 1, 3, and 5 in the mutant sequences. (6B) Near-UV CD thermal melts for TrpPlexus (“RRR”) and each mutant monitoring mean residue ellipticity at 280 nm (50 μM protein, 1 cm path length, 10 mM PBS buffer pH 7.5). Inset compares side-chain functionalities of the arginine (R), lysine (K), and L-citrulline (Cit) residues.
CD spectra were collected using an Aviv (Lakewood, N.J.) stopped flow CD Spectropolarimeter Model 202SF. […] Concentrations of protein stock solutions for conversion of millidegrees to mean residue ellipticity (MRE) were determined by UV absorbance at 280 nm using the standard extinction coefficients for the tryptophan (5690 M-1 cm-1), tyrosine (1280M-1 cm-1), and disulfide-bridged cysteine (125M-1 cm-1) chromophores in 6 M GnCl. […]
To explore the influence of cationic groups on fold stability, mutants were designed that replaced particular guanidinyl (arginine) side chain groups with either amino (lysine) cations or charge-neutral urea (L-citrulline) groups (FIG. 6). The near-UV CD signal monitored at 280 nm provides a metric of relative tertiary structure content (FIG. 6B). […]

[3] = Guanidinium chloride (GnCl) titration monitored by near-UV CD at 280 nm; conditions: standard aqueous conditions at 25° C.; extrapolated from variable GnCl concentration near-UV CD data (280 nm), 50 μM protein
Description: CD spectra were collected using an Aviv (Lakewood, N.J.) stopped flow CD Spectropolarimeter Model 202SF. The far-UV (190-260 nm) CD spectra were obtained using a 1 mm path length cell and in 10 mM PBS buffer at a pH of 7.5 at 100 μM protein concentrations. The near-UV (245-320 nm) CD spectra were obtained using a 1 cm path length cell and in 10 mM PBS buffer at a pH of 7.5 at 50 μM concentrations. The consensus CD spectra were established as the Gaussian weighted average of 40 scans with evaluation of ellipticity every 0.5 nm, each having an averaging time of 0.5 s. […] Concentrations of protein stock solutions for conversion of millidegrees to mean residue ellipticity (MRE) were determined by UV absorbance at 280 nm using the standard extinction coefficients for the tryptophan (5690 M-1 cm-1), tyrosine (1280M-1 cm-1), and disulfide-bridged cysteine (125M-1 cm-1) chromophores in 6 M GnCl. […]
Secondary and tertiary structure content of the mini-protein was initially evaluated using circular dichroism (CD) spectroscopy (FIG. 4A,B). In the near-UV (260-320 nm) CD spectrum, ellipticity can arise from indole and phenol absorbance bands when tryptophan or tyrosine side chains are present in an asymmetric environment. […]

Substance: RVRVRTSRpGYNGTWSEWS [TrpPlexus]
- oligomeric state by sedimentation equilibrium [1]: monomeric
- near-UV CD signal as a function of temperature (thermostability) [2]: slightly increase in strength at elevated temperatures, indicating thermostability; also recorded: weakly sigmoidal transitions to stronger ellipticities at elevated temperatures
- ΔG° for folding [3]: approximately −6.7 kcal/mol
